The values below are quoted from earlier work in patent US6426091B1, “Sustained-release theophylline tablet” (Nikken Chemicals Co., Ltd., priority 1997, dated 2002).

Regarding `Cn1c(=O)c2[nH]cnc2n(C)c1=O` [Theophylline], under “adults”, the biological half-life entry is listed as “about 6 hours”. Also, the “concentration in the blood above which serious side effects (cardiovascular system, central nervous system) sometimes appear” value (background art) is recorded as “exceeds 20 μg/ml”.
